SMILES strings stand for the structures.

As usually defined, the IC50 is the point on the concentration scale where inhibition reaches its midpoint. Low values mean inhibition by little substance, high ones a need for much substance.

The target in one assay is T1, SHP2 (Homo sapiens, UniProt Q06124).
T1 sequence (Q06124 1-593): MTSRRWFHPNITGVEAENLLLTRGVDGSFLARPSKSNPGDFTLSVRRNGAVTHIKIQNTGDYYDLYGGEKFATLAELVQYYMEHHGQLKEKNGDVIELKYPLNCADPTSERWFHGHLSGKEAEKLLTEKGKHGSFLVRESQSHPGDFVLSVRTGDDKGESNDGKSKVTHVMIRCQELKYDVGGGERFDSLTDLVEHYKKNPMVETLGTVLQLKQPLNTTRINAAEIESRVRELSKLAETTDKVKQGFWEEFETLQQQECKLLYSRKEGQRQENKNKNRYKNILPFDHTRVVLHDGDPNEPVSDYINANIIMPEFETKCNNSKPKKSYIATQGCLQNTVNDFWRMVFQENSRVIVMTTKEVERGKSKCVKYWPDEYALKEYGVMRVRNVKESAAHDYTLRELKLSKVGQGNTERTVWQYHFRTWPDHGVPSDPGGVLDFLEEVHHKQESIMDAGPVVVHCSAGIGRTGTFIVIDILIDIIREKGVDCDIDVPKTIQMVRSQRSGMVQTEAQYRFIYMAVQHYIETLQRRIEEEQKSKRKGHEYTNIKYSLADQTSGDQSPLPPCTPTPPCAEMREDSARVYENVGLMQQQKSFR
As to the kind of experiment: SHP2 allosteric inhibitor enzyme activity assay (DiFMUP fluorescence). In kind it is biochemical. Conditions: class symbols. The method in brief:
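SHP2 activated by 0.5 μM IRS1_pY1172(dPEG8)pY1222 peptide, 0.2 ng enzyme per well, 1 h at room temperature with compound (1 μM top, 3-fold series), then DiFMUP substrate 1 h. Buffer: 60 mM HEPES, 75 mM NaCl, 75 mM KCl, 0.05% BRIJ-35, 1 mM EDTA, 5 mM DTT. Fluorescence ex 340/em 450 nm; IC50 by variable-slope fit.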
Consider `N[C@@H]1c2ccccc2CC12CCN(c1nc3[nH]nc(C4=CCCc5ccccc54)c3c(=O)[nH]1)CC2` [Example 111, (S)-6-(1-amino-1,3-dihydrospiro[indene-2,4′-piperidin]-1′-yl)-3-(3,4-dihydronaphthalen-1-yl)-1,5-dihydro-4H-pyrazolo[3,4-d]pyrimidin-4-one], for which the IC50 is at most 0.02 µM.

Compound `N[C@@H]1c2ccccc2CC12CCN(c1nc3[nH]nc(C4=CCCc5ncccc54)c3c(=O)[nH]1)CC2` [Example 112, (S)-6-(1-amino-1,3-dihydrospiro[indene-2,4′-piperidin]-1′-yl)-3-(7,8-dihydroquinolin-5-yl)-1,5-dihydro-4H-pyrazolo[3,4-d]pyrimidin-4-one] gave an IC50 of at most 0.02 µM.

Compound `Cn1c2c(c3ccccc31)C(c1n[nH]c3nc(N4CCC5(CC4)Cc4ccccc4[C@H]5N)[nH]c(=O)c13)=CCC2` [Example 113, (S)-6-(1-amino-1,3-dihydrospiro[indene-2,4′-piperidin]-1′-yl)-3-(9-methyl-2,9-dihydro-1H-carbazol-4-yl)-1,5-dihydro-4H-pyrazolo[3,4-d]pyrimidin-4-one] registered a 50% inhibitory concentration (IC50) of at most 0.02 µM.

`N[C@@H]1c2ccccc2CC12CCN(c1nc3[nH]nc(C4=CCOc5ncccc54)c3c(=O)[nH]1)CC2` [Example 116, (S)-6-(1-amino-1,3-dihydrospiro[indene-2,4′-piperidin]-1′-yl)-3-(2H-pyrano[2,3-b]pyridin-4-yl)-1,5-dihydro-4H-pyrazolo[3,4-d]pyrimidin-4-one] showed an IC50 of at most 0.02 µM.

As to `N[C@@H]1c2ccccc2CC12CCN(c1nc3[nH]nc(C4=CCCc5sccc54)c3c(=O)[nH]1)CC2` [Example 117, (S)-6-(1-amino-1,3-dihydrospiro[indene-2,4′-piperidin]-1′-yl)-3-(6,7-dihydrobenzo[b]thiophen-4-yl)-1,5-dihydro-4H-pyrazolo[3,4-d]pyrimidin-4-one], the IC50 was at most 0.02 µM.

`CCCCCc1cc2c(s1)CCC=C2c1n[nH]c2nc(N3CCC4(CC3)Cc3ccccc3[C@H]4N)[nH]c(=O)c12` [Example 118, (S)-6-(1-amino-1,3-dihydrospiro[indene-2,4′-piperidin]-1′-yl)-3-(2-pentyl-6,7-dihydrobenzo[b]thiophen-4-yl)-1,5-dihydro-4H-pyrazolo[3,4-d]pyrimidin-4-one]: the IC50 is 0.02 to 0.06 µM.

Compound `N[C@@H]1c2ccccc2CC12CCN(c1nc3[nH]nc(C4=CCCc5occc54)c3c(=O)[nH]1)CC2` [Example 119, (S)-6-(1-amino-1,3-dihydrospiro[indene-2,4′-piperidin]-1′-yl)-3-(6,7-dihydrobenzofuran-4-yl)-1,5-dihydro-4H-pyrazolo[3,4-d]pyrimidin-4-one] yielded an IC50 of at most 0.02 µM.

`Cn1ccc2c1CCC=C2c1n[nH]c2nc(N3CCC4(CC3)Cc3ccccc3[C@H]4N)[nH]c(=O)c12` [Example 120, (S)-6-(1-amino-1,3-dihydrospiro[indene-2,4′-piperidin]-1′-yl)-3-(1-methyl-6,7-dihydro-1H-indol-4-yl)-1,5-dihydro-4H-pyrazolo[3,4-d]pyrimidin-4-one] returned an IC50 of at most 0.02 µM.

Regarding `Cn1cc2c(n1)CCC=C2c1n[nH]c2nc(N3CCC4(CC3)Cc3ccccc3[C@H]4N)[nH]c(=O)c12` [Example 121, (S)-6-(1-amino-1,3-dihydrospiro[indene-2,4′-piperidin]-1′-yl)-3-(2-methyl-6,7-dihydro-2H-indazol-4-yl)-1,5-dihydro-4H-pyrazolo[3,4-d]pyrimidin-4-one], the IC50 is at most 0.02 µM.

On to `N[C@@H]1c2ccccc2CC12CCN(c1nc3[nH]nc(C4=CCC(F)(F)c5ccccc54)c3c(=O)[nH]1)CC2` [Example 123, (S)-6-(1-amino-1,3-dihydrospiro[indene-2,4′-piperidin]-1′-yl)-3-(4,4-difluoro-3,4-dihydronaphtlialen-1-yl)-1,5-dihydro-4H-pyrazolo[3,4-d]pyrimidin-4-one], for which the half-inhibitory concentration (IC50) was at most 0.02 µM.

As to `N#Cc1ccc2c(c1)C(c1n[nH]c3nc(N4CCC5(CC4)Cc4ccccc4C5N)[nH]c(=O)c13)=CCC2(F)F` (centres unmarked) [Example 126], the IC50 is at most 0.02 µM.

The compound `CC1(C)CC=C(c2n[nH]c3nc(N4CCC5(CC4)Cc4ccccc4C5N)[nH]c(=O)c23)c2cccnc21` (centres unmarked) [Example 127, 6-(1-amino-1,3-dihydrospiro[indene-2,4′-piperidin]-1′-yl)-3-(8,8-dimethyl-7,8-dihydroquinolin-5-yl)-1,5-dihydro-4H-pyrazolo[3,4-d]pyrimidin-4-one] yielded an IC50 of at most 0.02 µM.

The compound `NC1c2ccccc2CC12CCN(c1nc3[nH]nc(C4=CCCn5ccnc54)c3c(=O)[nH]1)CC2` (centres unmarked) [Example 128] came in with an IC50 of at most 0.02 µM.

`Cc1nc2c(s1)C(c1n[nH]c3nc(N4CCC5(CC4)Cc4ccccc4C5N)[nH]c(=O)c13)=CC(C)(C)C2` (centres unmarked) [Example 129] came in with an IC50 of 0.02 to 0.06 µM.

The compound `CC1(C)C=C(c2n[nH]c3nc(N4CCC5(CC4)Cc4ccccc4C5N)[nH]c(=O)c23)c2sc(N)nc2C1` (centres unmarked) [Example 130, 6-(1-amino-1,3-dihydrospiro[indene-2,4′-piperidin]-1′-yl)-3-(2-amino-5,5-dimethyl-4,5-dihydrobenzo[d]thiazol-7-yl)-1,5-dihydro-4H-pyrazolo[3,4-d]pyrimidin-4-one] showed an IC50 of 0.02 to 0.06 µM.

Compound `Cn1ncc2c1CCC=C2c1n[nH]c2nc(N3CCC4(CC3)Cc3ccccc3[C@H]4N)[nH]c(=O)c12` [Example 131, (S)-6-(1-amino-1,3-dihydrospiro[indene-2,4′-piperidin]-1′-yl)-3-(1-methyl-6,7-dihydro-1H-indazol-4-yl)-1,5-dihydro-4H-pyrazolo[3,4-d]pyrimidin-4-one] returned an IC50 of at most 0.02 µM.

`N[C@@H]1c2ccccc2CC12CCN(c1nc3[nH]nc(C4=CCC5(CC5)c5ccccc54)c3c(=O)[nH]1)CC2` [Example 132, (S)-6-(1-amino-1,3-dihydrospiro[indene-2,4′-piperidin]-1′-yl)-3-(2′H-spiro[cyclopropane-1,1′-naphthalen]-4′-yl)-1,5-dihydro-4H-pyrazolo[3,4-d]pyrimidin-4-one] had an IC50 of at most 0.02 µM.

Compound `N[C@@H]1c2ccccc2CC12CCN(c1nc3[nH]nc(C4=CCC5(CC5)c5ncccc54)c3c(=O)[nH]1)CC2` [Example 133, (S)-6-(1-amino-1,3-dihydrospiro[indene-2,4′-piperidin]-1′-yl)-3-(7′H-spiro[cyclopropane-1,8′-quinolin]-5′-yl)-1,5-dihydro-4H-pyrazolo[3,4-d]pyrimidin-4-one] yielded an IC50 of at most 0.02 µM.

For the compound `N[C@@H]1c2ccccc2CC12CCN(c1nc3[nH]nc(C4=CCOc5ccc(Cl)cc54)c3c(=O)[nH]1)CC2` [Example 135, (S)-6-(1-amino-1,3-dihydrospiro[indene-2,4′-piperidin]-1′-yl)-3-(6-chloro-2H-chromen-4-yl)-1,5-dihydro-4H-pyrazolo[3,4-d]pyrimidin-4-one], the IC50 is at most 0.02 µM.

The assay is the same for the next values; noted with them: numeric values.
As for `N[C@@H]1c2ccccc2CC12CCN(c1nc3[nH]nc(C4=CSCc5ccccc54)c3c(=O)[nH]1)CC2` [Example 134, (S)-6-(1-amino-1,3-dihydrospiro[indene-2,4′-piperidin]-1′-yl)-3-(1H-isothiochromen-4-yl)-1,5-dihydro-4H-pyrazolo[3,4-d]pyrimidin-4-one], it took 0.0017 µM to reach half-maximal inhibition (IC50).
